Our source for the TGI values is PubChem BioAssay (NCI).

Test systems include HCT-116 colon; IGROV1 ovarian; LOX IMVI melanoma; MALME-3M melanoma; MDA-N; NCI-H460 lung; OVCAR-5 ovarian; RPMI-8226 leukemia; SNB-75 CNS; HOP-62 NSCLC.
Common to all, as to test: NCI anticancer screen, dose series, 48 h

Molecules are shown by their SMILES.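 Results reflect a 48-hour exposure of cells in 96-well plates to compound at five concentrations. TGI is the concentration that stops growth completely.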

Regarding `C/C=C/C=C/C1=NN(c2cccc(S(=O)(=O)O)c2)C2(C1)SCC(=O)N2c1nc2ccccc2s1` (centres undefined), the TGI in the assay with HCT-116 colon is over 100 µM; in the assay on IGROV1 ovarian it was over 100 µM; with LOX IMVI melanoma it was 51.8 µM; in the assay on MALME-3M melanoma, over 100 µM; in the assay on MDA-N it was over 100 µM; in the assay with NCI-H460 lung, over 100 µM. The TGI with OVCAR-5 ovarian, with RPMI-8226 leukemia and with SNB-75 CNS was over 100 µM each time.

`ClCc1c(-c2ccccc2)nn(-c2ccccc2)c1CCl`: the TGI amounted to 25.1 µM with HCT-116 colon; 42.9 µM in the assay on IGROV1 ovarian; 30.6 µM in the assay with MALME-3M melanoma; 24.2 µM in the assay on MDA-N; 35 µM with OVCAR-5 ovarian; 7.86 µM with RPMI-8226 leukemia. This molecule also registered a TGI in the assay on SNB-75 CNS of 16.7 µM.

Regarding `CN(C)CCCNC(=O)c1cc(NC(=O)c2cc(NC(=O)c3cc(NC(=O)CCCn4ccc(CO)c4CO)cn3C)cn2C)cn1C`, the TGI in the assay on HCT-116 colon was over 100 µM; in the assay with IGROV1 ovarian it was over 100 µM; in the assay with LOX IMVI melanoma it was over 100 µM; with MALME-3M melanoma it was 37.4 µM; in the assay with MDA-N, over 100 µM; in the assay with NCI-H460 lung, over 100 µM. The figures for the TGI in the assay with OVCAR-5 ovarian and in the assay with SNB-75 CNS were over 100 µM and 44.4 µM, respectively.

Turning to `C[C@H](CC[C@@H](O)C(C)(C)O)[C@H]1CC[C@@]2(C)[C@@H]3CC=C4[C@@H](CC[C@H](OC5OC(CO)C(O)C(O)C5O)C4(C)C)[C@]3(C)C(=O)C[C@]12C` (some centres undefined), the TGI in the assay with HCT-116 colon is over 100 µM; in the assay with HOP-62 NSCLC, over 100 µM; in the assay on IGROV1 ovarian, 44.3 µM; in the assay with LOX IMVI melanoma, over 100 µM; in the assay with MALME-3M melanoma it was over 100 µM; in the assay with MDA-N it was over 100 µM. For the same molecule, the TGI in the assay on NCI-H460 lung, in the assay with OVCAR-5 ovarian and in the assay with SNB-75 CNS was over 100 µM in each case.

Regarding `O=C(c1ccc(Cl)cc1)N1N=C(c2ccc(Cl)cc2)CC1(O)c1cc(F)c(Cl)cc1Cl` (centres undefined), the TGI with HCT-116 colon was 26.4 µM; in the assay on HOP-62 NSCLC, 76.9 µM; in the assay with IGROV1 ovarian, over 100 µM; with LOX IMVI melanoma it was 43.3 µM; in the assay on MALME-3M melanoma, over 100 µM; in the assay on MDA-N, 28.5 µM. In addition, the TGI was over 100 µM in the assay on NCI-H460 lung, over 100 µM in the assay with OVCAR-5 ovarian, 40.3 µM with RPMI-8226 leukemia and 44.5 µM in the assay with SNB-75 CNS.

As to `O=C(Nc1ccc2ccccc2c1)Nn1cnnc1`, the TGI in the assay with HCT-116 colon, in the assay with HOP-62 NSCLC, in the assay on IGROV1 ovarian, with LOX IMVI melanoma, with MALME-3M melanoma and with MDA-N was over 100 µM each time. In addition, the TGI with NCI-H460 lung, with OVCAR-5 ovarian, with RPMI-8226 leukemia and in the assay with SNB-75 CNS was over 100 µM throughout.

With `C=CCN1CC2CN=NC2(C#N)C1` (centres undefined), the TGI in the assay on HCT-116 colon, in the assay with HOP-62 NSCLC, in the assay with IGROV1 ovarian, in the assay on LOX IMVI melanoma, in the assay on MALME-3M melanoma and with MDA-N was over 100 µM in each case. The TGI in the assay on NCI-H460 lung, in the assay with OVCAR-5 ovarian and with SNB-75 CNS was over 100 µM in each case.

In the case of `Cc1cc(S(=O)(=O)O)ccc1N=Nc1ccc(N=Nc2c(O)ccc3ccccc23)c(C)c1`, the TGI in the assay on HCT-116 colon, with HOP-62 NSCLC, in the assay with IGROV1 ovarian, with LOX IMVI melanoma, in the assay with MALME-3M melanoma and in the assay with MDA-N was over 100 µM throughout. Further, the TGI with OVCAR-5 ovarian, with RPMI-8226 leukemia and with SNB-75 CNS was over 100 µM throughout.

Take `COC(=O)C[C@H](COCc1ccccc1)NC(=O)C[C@H](COCc1ccccc1)NC(=O)C[C@H](COCc1ccccc1)NC(=O)OC(C)(C)C`: the TGI was 67 µM in the assay with HCT-116 colon; 48 µM with HOP-62 NSCLC; over 100 µM with IGROV1 ovarian; over 100 µM in the assay on LOX IMVI melanoma; over 100 µM with MALME-3M melanoma; over 100 µM in the assay with MDA-N. For the same molecule, the TGI is over 100 µM with OVCAR-5 ovarian, over 100 µM in the assay with RPMI-8226 leukemia and 38 µM with SNB-75 CNS.

Turning to `O=c1c2cc(-c3ccccc3)cnc2sn1-c1ccc([N+](=O)[O-])cc1`, the TGI in the assay on HCT-116 colon was over 100 µM; in the assay on HOP-62 NSCLC, 81.7 µM; in the assay with IGROV1 ovarian, over 100 µM; with MALME-3M melanoma, over 100 µM; with MDA-N, over 100 µM; with NCI-H460 lung it was over 100 µM. For the same molecule, the TGI in the assay on OVCAR-5 ovarian, in the assay with RPMI-8226 leukemia and with SNB-75 CNS was over 100 µM in each case.

Regarding `N=C(N)n1[nH]c2c(c1=O)CCC2`, the TGI with HCT-116 colon, in the assay on HOP-62 NSCLC, in the assay on IGROV1 ovarian, in the assay with LOX IMVI melanoma, with MALME-3M melanoma and in the assay with MDA-N was over 100 µM each time. Besides, the TGI in the assay with NCI-H460 lung, in the assay on OVCAR-5 ovarian and in the assay with SNB-75 CNS was over 100 µM each time.

As for `CC(=O)Oc1ccc(OC(Oc2ccccc2)c2ccccc2)cc1` (centres undefined), the TGI in the assay with HCT-116 colon was 59 µM; in the assay on HOP-62 NSCLC, over 100 µM; in the assay with IGROV1 ovarian it was over 100 µM; in the assay on LOX IMVI melanoma it was 52.6 µM; in the assay on MALME-3M melanoma, 52.9 µM; in the assay on MDA-N it was 42.2 µM. Further, the TGI was 49.3 µM in the assay on NCI-H460 lung, over 100 µM with OVCAR-5 ovarian and 64.4 µM with SNB-75 CNS.

Turning to `Cc1cccc2c(N)c3cccc(C(=O)NCC[N+](C)(C)Cc4sc(N5CCOCC5)nc4[N+](=O)[O-])c3nc12`, the TGI is 20.6 µM in the assay with HCT-116 colon; 7.77 µM in the assay with HOP-62 NSCLC; over 100 µM with IGROV1 ovarian; 3.78 µM in the assay on LOX IMVI melanoma; 24.7 µM in the assay on MALME-3M melanoma; 21.8 µM in the assay on MDA-N. Moreover, the TGI with OVCAR-5 ovarian is 16.4 µM; with RPMI-8226 leukemia it was over 100 µM; in the assay on SNB-75 CNS, 22.7 µM.

Consider `C=C(C)CC1=C(C(=S)NCCO[Si](C)(C)C(C)(C)C)C(OCC)(OCC)C1=O`, for which the TGI with HCT-116 colon was 50 µM; with HOP-62 NSCLC, 34.3 µM; in the assay on IGROV1 ovarian, 31.3 µM; with LOX IMVI melanoma, 56.9 µM; in the assay with MALME-3M melanoma it was 27.1 µM; with MDA-N it was 43.2 µM. Further, the TGI with OVCAR-5 ovarian is 28.5 µM; in the assay on SNB-75 CNS, 36.8 µM.
